Key:
[1] = Hydroxyl radical scavenging efficacy (Fenton system, DMPO spin trap, EPR)
Protocol: Hydroxyl radical scavenging efficacy of cilostazol was determined in air-saturated phosphate buffer (10 mM) at room temperature. The reaction was initiated by addition of a small aliquot (5 μL) of Fe^2+ solution (10 mM FeSO4 in 10 mM HCl) to a buffer containing cilostazol, H2O2 (0.12 mM) and 5,5-dimethyl-1-pyrroline-N-oxide (DMPO) (1 mM). The sample was transferred quickly to flat quartz electron paramagnetic resonance (EPR) cell, and measurements were started immediately.
The EPR spectra of the spin-adduct of DMPO with the hydroxyl radical: DMPO/.OH was observed when DMPO reacted with hydroxyl radical generated by the Fenton system. The EPR spectra (.OH) are shown in the accompanying FIG. 1. Scavenging of hydroxyl radicals was confirmed by using catalase (0.510 U/ml) (data not shown).

[2] = Peroxyl radical absorbing capacity (PRAC) assay; conditions: 1 PRAC unit is the value of 1 μM of trolox, β-phycoerythrin fluorescence, 37° C.
Protocol: According to the method described by Cao et al. (Cao G, Alessio HM, Cutler RG (1993), Oxygen-radical absorbance capacity assay for antioxidants, Free Radic. Biol. Med 14: 303-311), the assay is based on production of peroxyl radicals by 2,2′-azobis(2-amidinopropane) hydrochloride (3 mM), a peroxyl radical generator, with subsequent oxidation of the reporter protein, β-phycoerythrin (16.7 nM) in 24 well plates. Into each sample well, either 20 μl of phosphate buffer or 20 μl of each concentration of cilostazol was included. After adding 2,2′-azobis(2-amidinopropane) hydrochloride, the reaction mixture was incubated at 37° C. Loss of fluorescence was measured every 5 minutes at the emission of 590 nm and excitation of 485 nm using Fluorescence Plate Reader (Bio-Tek Instruments, Inc., Winooski, USA). The PRAC value of the compound is reflected in the increase of area under curve of fluorescence versus time. Trolox was used as a reference for PRAC assay. The fluorescence just prior to addition of the 2,2′-azobis(2-amidinopropane) hydrochloride was estimated as the 100% value for that sample. The PRAC values were calculated by the following equation: [formula]
where 1 PRAC unit is the value of 1 μM of trolox.
The time-dependent decrease of β-phycoerythrin fluorescence in the absence (blank) and the presence of different concentrations of cilostazol is shown, in the accompanying FIG. 2. […]

O=C1CCc2cc(OCCCCc3nnnn3C3CCCCC3)ccc2N1 [cilostazol, 6-[4-(1-cyclohexyl-1H-tetrazol-5-yl)butoxy]-3,4-dihydrocarbostyril]
DMPO/.OH adduct EPR signals ([1]; 10^−5 M of cilostazol): almost ameliorated
IC50 ([1]; DMPO/.OH adduct formation, Fenton system, phosphate buffer 10 mM, room temperature, EPR, read-out: concentration required for inhibiting hydroxyl radical formation (IC50)): 2580 ± 70 nM
PRAC value ([2]; 10^−4 M cilostazol): 1.938 unit
PRAC value ([2]; 10^−6 M cilostazol): 1.325 unit

From patent US6743806B2, “Active oxygen scavenger” (Otsuka Pharmaceutical Company, Limited, priority 2002, dated 2004)
